According to patent US8163909B2, “Substituted hydroxyethyl amine compounds as beta-secretase modulators and methods of use” (Amgen Inc., priority 2007, dated 2012):
Where two headings read alike, the source gives them in different places.

Assays:
[1] = tested on: Aβ40 in conditioned medium of cells stably expressing Amyloid Precursor Protein (APP); experiment: In vitro BACE cell-based assay (Aβ40 in conditioned medium, sandwich ELISA); conditions: Homo sapiens;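 also: compounds added as a dilution series, secreted peptide quantified by europium time-resolved fluorescence readout, potency fitted from percent of control versus compound concentration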
[2] = Microsomal stability assay, human liver microsomes;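 also: pooled human liver microsomes at 0.25 mg/mL with 1 µM compound and NADPH at 37 °C, pH 7.4, for 30 min, unchanged parent quantified by LC-MS/MS against the 0 min sample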
[3] = target: Beta Secretase enzyme (BACE) (Homo sapiens, UniProt P56817); experiment: In vitro enzymatic BACE FRET (fluorescence resonance energy transfer) assay; format: biochemical;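 also: fluorescence read after 1 h with 50 nM quenched peptide substrate spanning the BACE cleavage site, in pH 4.2 acetate buffer containing 10% DMSO and nonionic detergent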
Chain of Beta Secretase enzyme (BACE) (P56817 46-501): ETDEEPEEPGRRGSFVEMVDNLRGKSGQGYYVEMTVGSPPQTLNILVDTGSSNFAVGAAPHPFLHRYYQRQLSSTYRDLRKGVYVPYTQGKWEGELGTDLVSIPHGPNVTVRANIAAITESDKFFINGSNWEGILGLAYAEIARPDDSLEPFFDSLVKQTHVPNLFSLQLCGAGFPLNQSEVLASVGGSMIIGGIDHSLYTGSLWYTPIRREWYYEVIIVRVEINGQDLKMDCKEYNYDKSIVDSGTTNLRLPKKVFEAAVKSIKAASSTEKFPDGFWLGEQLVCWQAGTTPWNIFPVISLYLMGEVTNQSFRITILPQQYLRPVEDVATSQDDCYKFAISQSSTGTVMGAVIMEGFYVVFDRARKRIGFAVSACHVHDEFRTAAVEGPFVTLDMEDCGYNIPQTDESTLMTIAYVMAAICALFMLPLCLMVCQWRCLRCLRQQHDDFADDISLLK

[4] = Microsomal stability assay, rat liver microsomes;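 also: rat liver microsomes (0.25 mg/mL) with about 1 µM compound plus 1 mM NADPH, pH 7.4, 37 °C for 30 min, parent left measured by LC-MS/MS against 0 min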
CYP3A4 (CYP3A) = CYP3A4 (CYP3A) (Homo sapiens, UniProt P08684); experiment: in vitro; conditions: microsomes, pH 7.4;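 also: inhibition of CYP3A-mediated 1-hydroxymidazolam formation after 10 min incubation with NADPH, quantified by HPLC MS relative to metabolite produced without test compound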
Chain of CYP3A4 (CYP3A) (P08684 2-503): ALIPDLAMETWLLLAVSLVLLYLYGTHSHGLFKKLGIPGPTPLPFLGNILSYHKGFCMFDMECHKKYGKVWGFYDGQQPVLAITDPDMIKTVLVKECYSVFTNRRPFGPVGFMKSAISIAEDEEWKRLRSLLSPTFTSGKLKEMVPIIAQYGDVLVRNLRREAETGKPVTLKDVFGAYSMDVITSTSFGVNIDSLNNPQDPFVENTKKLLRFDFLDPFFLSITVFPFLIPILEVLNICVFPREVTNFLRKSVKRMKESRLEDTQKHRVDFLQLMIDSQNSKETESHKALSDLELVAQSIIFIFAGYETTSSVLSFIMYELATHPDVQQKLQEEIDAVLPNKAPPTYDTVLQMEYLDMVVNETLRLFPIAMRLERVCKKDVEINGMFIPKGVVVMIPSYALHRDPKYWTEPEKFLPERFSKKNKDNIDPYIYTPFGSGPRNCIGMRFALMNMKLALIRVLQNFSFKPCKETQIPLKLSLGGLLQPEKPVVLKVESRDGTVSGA

CYP2D6 = CYP2D6 (Homo sapiens, UniProt P10635); experiment: CYP2D6 inhibition assay (bufuralol, pooled human liver microsomes)
Chain of CYP2D6 (P10635 whole entry): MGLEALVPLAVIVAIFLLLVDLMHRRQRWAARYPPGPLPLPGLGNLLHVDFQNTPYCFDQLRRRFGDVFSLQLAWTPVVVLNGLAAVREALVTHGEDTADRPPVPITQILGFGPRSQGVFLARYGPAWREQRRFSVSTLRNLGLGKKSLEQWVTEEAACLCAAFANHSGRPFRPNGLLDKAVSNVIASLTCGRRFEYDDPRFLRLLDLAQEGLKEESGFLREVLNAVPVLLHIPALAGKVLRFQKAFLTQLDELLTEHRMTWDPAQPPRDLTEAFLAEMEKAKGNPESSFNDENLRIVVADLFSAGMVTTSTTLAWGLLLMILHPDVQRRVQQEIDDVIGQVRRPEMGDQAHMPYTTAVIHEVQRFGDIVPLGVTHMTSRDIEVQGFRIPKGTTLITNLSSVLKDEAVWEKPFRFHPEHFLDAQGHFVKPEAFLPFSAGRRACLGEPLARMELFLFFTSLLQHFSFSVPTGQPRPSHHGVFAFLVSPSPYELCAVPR

[5] = HEK293, Table 2, HEK cells, read-out: HEK cell assay
[6] = Table 2, read-out: BACE1 FRET assay
[7] = 2D6 IC50, CYP enzyme inhibition
[8] = HEK293, HEK cells, read-out: HEK cell assay (IC50)
[9] = read-out: BACE1 FRET assay (IC50)
[10] = HEK293, HEK cell-based assay, IC50's in uM, read-out: HEK cell assay
[11] = BACE enzyme assay, IC50's in uM, read-out: BACE1 FRET assay
[12] = 2D6 IC50 (uM), CYP enzyme inhibition
[13] = HEK293, HEK cell-based assay IC50, read-out: HEK cell assay
[14] = BACE enzyme assay IC50, read-out: BACE1 FRET assay
[15] = 2D6 IC50 (uM), CYP2D6 inhibition
[16] = HEK293, HEK cells, read-out: HEK cell assay
[17] = BACE enzyme assay, read-out: BACE1 FRET assay

| SMILES | HLM ([2]; human liver microsomal data) | RLM ([4]; rat liver microsomal data) | IC50 (CYP3A4 (CYP3A)) | HLM ([2]; human liver microsomes) | RLM ([4]; rat liver microsomes) | IC50 (CYP2D6; [12]) | further results |
| --- | --- | --- | --- | --- | --- | --- | --- |
| CC(=O)N[C@@H](C[C@H]1CCOC1)[C@H](O)CN[C@H]1CC2(CCC2)Oc2ncc(CC(C)(C)C)cc21 [compound 469] | 60 µL/min/mg | 35 µL/min/mg | 16.4 µM |  |  |  | IC50 [1, 5]: 0.162 µM; IC50 [3, 6]: 0.137 µM; IC50 (CYP2D6; [7]): ≥ 27 µM |
| COCC(=O)N[C@@H](Cc1cc(F)cc(-c2ccncc2)c1)[C@H](O)CN[C@H]1CC2(CCC2)Oc2ncc(CC(C)(C)C)cc21 [compound 613] |  |  | 0.16 µM | 228 µL/min/mg | 142 µL/min/mg |  | IC50 [1, 8]: 0.011 µM; IC50 [3, 9]: 0.02 µM; IC50 (CYP2D6; 2D6 IC50, CYP2D6 inhibition): 0.3 µM |
| COC(OC)C(=O)N[C@@H](Cc1cc(F)cc(-c2nccs2)c1)[C@H](O)CN[C@H]1CC2(CCC2)Oc2ncc(CC(C)(F)F)cc21 [compound 818] | 41 µL/min/mg | 46 µL/min/mg | 0.6 µM |  |  | 2.3 µM | IC50 [1, 10]: 0.059 µM; IC50 [3, 11]: 0.013 µM |
| Cc1cccc(CN2CCO[C@H](C(=O)N[C@@H](Cc3ccc(F)cc3)[C@H](O)CN[C@H]3CC4(CCC4)Oc4ncc(CC(C)(C)C)cc43)C2)c1 [compound 691] |  |  | 0.2 µM | 543 µL/min/mg | 426 µL/min/mg |  | IC50 [1, 13]: 0.104 µM; IC50 [3, 14]: 0.078 µM; IC50 (CYP2D6; [15]): 3 µM |
| CO[C@H](C)C(=O)N[C@@H](Cc1cc(F)cc(F)c1)[C@H](O)CN[C@H]1CC2(CCC2)Oc2c(-c3ccncc3)cc(Cl)cc21 [compound 561] | 113 µL/min/mg | 426 µL/min/mg | 0.1 µM |  |  | 0.4 µM | IC50 [1, 16]: 0.262 µM; IC50 [3, 17]: 0.092 µM |
| CC(=O)N[C@@H](Cc1cc(F)cc(-c2cscn2)c1)[C@H](O)CN[C@H]1CC2(CCC2)Oc2ncc(CC(C)(C)C)cc21 [compound 672] |  |  | 0.4 µM | 358 µL/min/mg | 134 µL/min/mg |  | IC50 [1, 13]: 0.005 µM; IC50 [3, 14]: 0.004 µM; IC50 (CYP2D6; [15]): 2.7 µM |
| CC(C)(C)Cc1cnc2c(c1)[C@@H](NC[C@@H](O)[C@H](Cc1ccc(F)cc1)NC(=O)COC(F)F)CC1(CCC1)O2 [compound 647] |  |  | 0.4 µM | 303 µL/min/mg | 269 µL/min/mg |  | IC50 [1, 8]: 0.039 µM; IC50 [3, 9]: 0.008 µM; IC50 (CYP2D6; 2D6 IC50, CYP2D6 inhibition): 2.7 µM |
| CO[C@H](C)C(=O)N[C@@H](Cc1cc(F)cc(-c2nccs2)c1)[C@H](O)CNC1CC2(CCC2)Oc2ncc(CC(C)(F)F)cc21 (stereo partly drawn) [compound 765, (2R)-N-((1S,2R)-3-((6′-(2,2-difluoropropyl)-3′,4′-dihydrospiro[cyclobutane-1,2′-pyrano[2,3-b]pyridin]-4′-yl)amino)-1-(3-fluoro-5-(1,3-thiazol-2-yl)benzyl)-2-hydroxypropyl)-2-methoxypropanamide] | 35 µL/min/mg | 39 µL/min/mg | 0.2 µM |  |  | 0.7 µM | IC50 [1, 10]: 0.054 µM; IC50 [3, 11]: 0.021 µM |
| CC(C)(C)Cc1cnc2c(c1)[C@@H](NC[C@@H](O)[C@H](Cc1ccc(F)cc1)NC(=O)C(C)(F)F)CC1(CCC1)O2 [compound 477] | 118 µL/min/mg | 337 µL/min/mg | 0.3 µM |  |  |  | IC50 [1, 5]: 0.104 µM; IC50 [3, 6]: 0.012 µM; IC50 (CYP2D6; [7]): 3.2 µM |
| CC(=O)N[C@@H](Cc1cccc(-n2ccnc2)c1)[C@H](O)CN[C@H]1CC2(CCC2)Oc2ncc(CC(C)(C)C)cc21 [compound 615, N-((1S,2R)-3-(((4′S)-6′-(2,2-dimethylpropyl)-3′,4′-dihydrospiro[cyclobutane-1,2′-pyrano[2,3-b]pyridin]-4′-yl)amino)-2-hydroxy-1-(3-(1H-imidazol-1-yl)benzyl)propyl)acetamide] |  |  | 0.16 µM | 59 µL/min/mg | 32 µL/min/mg |  | IC50 [1, 8]: 0.007 µM; IC50 [3, 9]: 0.06 µM; IC50 (CYP2D6; 2D6 IC50, CYP2D6 inhibition): 0.16 µM |
| CO[C@H](C)C(=O)N[C@@H](Cc1ccccc1)[C@H](O)CN[C@H]1CC2(CCC2)Oc2c(Br)cc(CC(C)C)cc21 [compound 545] | 775 µL/min/mg | 775 µL/min/mg | 1.1 µM |  |  | 8.2 µM | IC50 [1, 16]: 1.49 µM; IC50 [3, 17]: 0.007 µM |
| CN1CCO[C@@H](C(=O)N[C@@H](Cc2ccc(F)cc2)[C@H](O)CN[C@H]2CC3(CCC3)Oc3ncc(CC(C)(C)C)cc32)C1 [compound 739] |  |  | 0.8 µM | 266 µL/min/mg | 239 µL/min/mg |  | IC50 [1, 13]: 0.008 µM; IC50 [3, 14]: 0.064 µM; IC50 (CYP2D6; [15]): 6.7 µM |
| CC(=O)N[C@@H](Cc1cccc(C#N)c1)[C@H](O)CN[C@H]1CC2(CCC2)Oc2c(-c3ccncc3)cc(CC(C)(C)C)cc21 [compound 637] |  |  | 0.1 µM | 34 µL/min/mg | 105 µL/min/mg |  | IC50 [1, 8]: 0.004 µM; IC50 [3, 9]: 0.01 µM; IC50 (CYP2D6; 2D6 IC50, CYP2D6 inhibition): 2.8 µM |
| COCC(=O)N[C@@H](Cc1cc(F)cc(F)c1)[C@H](O)CN[C@H]1CC2(CCC2)Oc2c(-c3ccncc3)cc(C3CC3)cc21 [compound 783] | 73 µL/min/mg | 107 µL/min/mg | 0.3 µM |  |  | 0.3 µM | IC50 [1, 10]: 0.029 µM; IC50 [3, 11]: 0.031 µM |
| COCC(=O)N[C@@H](Cc1ccc(F)cc1)[C@H](O)CN[C@H]1CC(C)(C)Oc2ncc(CC(C)(C)C)cc21 [compound 663] |  |  | 1.7 µM | 163 µL/min/mg | 133 µL/min/mg |  | IC50 [1, 8]: 0.021 µM; IC50 [3, 9]: 0.013 µM; IC50 (CYP2D6; 2D6 IC50, CYP2D6 inhibition): 10.5 µM |
| CC(=O)N[C@@H](Cc1ccc(-c2cscn2)cc1)[C@H](O)CN[C@H]1CC2(CCC2)Oc2ncc(CC(C)(C)C)cc21 [compound 693] |  |  | 0.2 µM | 110 µL/min/mg | 63 µL/min/mg |  | IC50 [1, 13]: 0.06 µM; IC50 [3, 14]: 0.043 µM; IC50 (CYP2D6; [15]): 2.9 µM |
| COCC(=O)N[C@@H](Cc1cc(F)cc(F)c1)[C@H](O)CN[C@H]1CC2(CCC2)Oc2c1cc(CC(C)(C)C)nc2-c1cnc[nH]1 [compound 508] | 17 µL/min/mg | 43 µL/min/mg | 0.1 µM |  |  | 1.2 µM | IC50 [1, 16]: 0.005 µM; IC50 [3, 17]: 0.024 µM |
| CO[C@H](C)C(=O)N[C@@H](Cc1cccc(F)c1)[C@H](O)CN[C@H]1CC2(CCC2)Oc2c(Br)cc(CC(C)C)cc21 [compound 515] | 775 µL/min/mg | 399 µL/min/mg | 1.3 µM |  |  | 9.4 µM | IC50 [1, 16]: 0.125 µM; IC50 [3, 17]: 0.003 µM |
| CO[C@H](C)C(=O)N[C@@H](Cc1cc(F)cc(F)c1)[C@H](O)CN[C@H]1CC2(CCC2)Oc2cnc(CC(C)C)cc21 [compound 688] |  |  | 0.2 µM | 921 µL/min/mg | 399 µL/min/mg |  | IC50 [1, 13]: 0.036 µM; IC50 [3, 14]: 0.009 µM; IC50 (CYP2D6; [15]): 3 µM |
| CC#Cc1ccc2c(c1)[C@@H](NC[C@@H](O)[C@H](Cc1cc(F)cc(-c3nccs3)c1)NC(=O)COC)CC1(CCC1)O2 [compound 806] | 61 µL/min/mg | 92 µL/min/mg | 0.2 µM |  |  | 0.6 µM | IC50 [1, 10]: 4.15 µM; IC50 [3, 11]: 0.669 µM |
| CO[C@H](C)C(=O)N[C@@H](Cc1ccc2c(c1)OCO2)[C@H](O)CN[C@H]1CC(C)(C)Oc2ncc(CC(C)(C)C)cc21 [compound 674] |  |  | 0.1 µM | 26 µL/min/mg | 128 µL/min/mg |  | IC50 [1, 13]: 0.037 µM; IC50 [3, 14]: 0.033 µM; IC50 (CYP2D6; [15]): 10.5 µM |
